Experiments:
MCF7/LCC9 cell line = assay: XTT cell death assay, MCF7/LCC9 cells; format: cell-based; conditions: Homo sapiens, # = 200 uM not tested, read-out: LCC-9: concentration with effect on cancer cells
Experimental: (§1) Maintenance and Treatment of Cell Lines. Human HepG2 hepatocarcinoma cells and human U87MG glioma cells (ATCC, Manassas, Va.) were maintained in EMEM medium supplemented with 10% FBS (Hyclone, Logan, Utah). The human 1321N1 astrocytoma cells (European Collection of Cell Cultures, Sigma-Aldrich) were cultured in Dulbecco's modified Eagle's medium supplemented with 10% FBS and 2 mM L-glutamine. Human prostate carcinoma cell line PC3 was cultured in F-12K medium (Life Technologies) supplemented 10% FBS. Human lung carcinoma cell line A549 was cultured in DMEM+2 mM glutamine+10% FBS. ER positive, estrogen independent for growth MCF7/LCC9 cell line was cultured in IMEM (Biofluids) supplemented with 5% charcoal stripped calf serum. Medulloblastoma cell line DAOY was cultured in Eagle's MEM supplemented with 10% FBS. All cell lines except MDA-MB-321 were cultured at 37° C. in 5% CO2, and the medium was replaced every 2-3 days. MDA-MB-231 was grown in Leibovitz's L-15 medium with 10% FBS without CO2 supplementation.
(§2) Cell death assay. The extent of cell death and toxicity of the compounds was tested by XTT assay. The cells were plated in their respective media in 96-well plates. The compounds and were added in dilutions ranging from 0.01 nM to 200 μM and for control DMSO to 1% was used. […] For XTT assay first the medium in the wells was replaced with 200 μs of fresh phenol-red free medium. Then 50 μls of XTT solution with PMS was added to the wells. The XTT solution was made adding 0.02% phenazine methosulfate (Sigma-Aldrich #P9625) to 1 mg/ml XTT sodium salt made up in phenol-red free RPMI (Sigma-Aldrich #X4636). The plate was incubated for 4 hours at 37° C. and then the absorbance was read at a wavelength of 490 nm.

tumor cells = assay: Effect on the growth of a variety of tumor cells (summary of Table 1); format: cell-based; conditions: IC50 value of less than 100 μM was considered active
Experimental: as §1
Cell death assay. The extent of cell death and toxicity of the compounds was tested by XTT assay. The cells were plated in their respective media in 96-well plates. […] The plate was incubated for 4 hours at 37° C. and then the absorbance was read at a wavelength of 490 nm.
The effect of NT015 and NT016 on the growth of a variety of tumor cells was evaluated. […]

HepG2 cells [1] = assay: XTT cell death assay, HepG2 hepatocarcinoma cells; format: cell-based, human; conditions: Homo sapiens, HepG2, *Greater than 50% inhibition, dilutions 0.01 nM to 200 μM, usually 24 or 48 hours, read-out: HepG2* (liver cancer): concentration with greater than 50% inhibition
Experimental: as §1, with “FBS.” for “FBS. All cell lines except MDA-MB-321 were cultured at 37° C. in 5% CO2, and the medium was replaced every 2-3 days. MDA-MB-231 was grown in Leibovitz's L-15 medium with 10% FBS without CO2 supplementation.”
as §2, with “#X4636).” for “#X4636). The plate was incubated for 4 hours at 37° C. and then the absorbance was read at a wavelength of 490 nm.”

PC3 cells = assay: XTT cell death assay, PC3 prostate carcinoma cells; format: cell-based; conditions: Homo sapiens, PC-3, # = 200 uM not tested, read-out: PC3: concentration with effect on cancer cells
Experimental: as §1, §2

A549 xenograft = assay: Zebrafish xenograft assay with implanted A549 cells; format: in vivo; conditions: zebrafish embryos, 100 uM, 4 days after implantation, n=10 to 15
Experimental: Zebrafish xenograft assay. Zebrafish embryos with implanted A549 cells were imaged within 6 hours of cell injection (day 0) and treated with compounds. At 4 days post injection (day 4) the embryos were imaged again. The area of fluorescence due to the labeled cells was measured using Image J at day 0 (area 0) and day 4 (area 4). The change in area was calculated by subtracting area 0 from area 4 (=d area). D area was then normalized for the size of the initial tumor by dividing d area by area 0 (=d area/area 0).

A549 = assay: XTT cell death assay, A549 lung carcinoma cells; format: cell-based; conditions: Homo sapiens, # = 200 uM not tested, read-out: A549: concentration with effect on cancer cells
Experimental: as §1, §2

DAOY = assay: XTT cell death assay, DAOY medulloblastoma cells; format: cell-based; conditions: Homo sapiens, # = 200 uM not tested, read-out: DAOY: concentration with effect on cancer cells
Experimental: as §1, §2

HepG2 cells [2] = assay: Caspase assay (Caspase-Glo 3/7) on HepG2 cells; format: cell-based, human; conditions: n=4; for caspase activity (fluorescence ratio to untreated cells): 48 hours after addition, 100 uM
Experimental: Caspase Assay. Caspase assay was conducted by using the Promega Caspase-Glo 3/7 kit. 100 ul of caspase-Glo 3/7 reagent was added to each well of a white walled 96-well plate containing 100 ul of blank, negative control cells or treated cells in culture medium. The contents of the wells were mixed gently and incubated at room temperature for 30 minutes to 3 hours. The luminescence of each sample was read in a luminometer.

MDA-MB-231 = assay: XTT cell death assay, MDA-MB-231 cells; format: cell-based; conditions: Homo sapiens, # = 200 uM not tested, read-out: MDA-MB-231: concentration with effect on cancer cells
Experimental: as §1, §2

SMILES	minimal effective concentration (MCF7/LCC9 cell line) [µM]	inhibition of liver, lung, breast, prostate and CNS cancer cell growth (tumor cells)	minimal effective concentration (HepG2 cells [1]) [µM]	minimal effective concentration (PC3 cells) [µM]	area of A549 xenograft implant (A549 xenograft)	minimal effective concentration (A549) [µM]	minimal effective concentration (DAOY) [µM]	caspase activity (fluorescence ratio to untreated cells) (HepG2 cells [2])	minimal effective concentration (MDA-MB-231) [µM]	caspase activation (fluorescence ratio to untreated cells) (HepG2 cells [2]; 48 hours, control compound at 10 uM)
CC(Cc1cccc2ccccc12)NCCc1ccc(O)cc1 (stereo not shown) [NT016, 4-(2-((1-(naphthalen-1-yl)propan-2-yl)amino)ethyl)phenol]	100	potent inhibitors	100	200	efficacy of reducing the area of xenograft significantly	100	100	–	–	–
CC(N)Cc1ccc2ccccc2c1 (stereo not shown) [NT015, 1-(naphthalen-2-yl)propan-2-amine]	–	potent inhibitors	–	–	–	–	–	increase in caspase activity	–	–
CC(Cc1cccc2ccccc12)NCC(O)c1ccc(O)cc1 (stereo not shown) [NT019]	–	–	100	100	–	100	100	increase in caspase activity	–	–
CC(Cc1cccc2ccccc12)NCC(O)c1ccccc1O (stereo not shown) [NT029, 2-(1-hydroxy-2-((1-(naphthalen-1-yl)propan-2-yl)amino)ethyl)phenol]	100	–	100	200	efficacy of reducing the area of xenograft significantly	100	100	–	–	–
Cc1ccc(CC(C)NCC(O)c2ccc(O)cc2)c2ccccc12 (stereo not shown) [NT039, 4-(1-hydroxy-2-((1-(4-methylnaphthalen-1-yl)propan-2-yl)amino)ethyl)phenol]	100	–	–	–	efficacy of reducing the area of xenograft significantly	100	100	–	–	–
CC(Cc1cccc2ccccc12)NCC(O)c1ccc(O)cc1 (stereo not shown) [NT027, 4-(1-hydroxy-2-((1-(naphthalen-1-yl)propan-2-yl)amino)ethyl)phenol]	100	–	–	–	efficacy of reducing the area of xenograft significantly	–	–	increase in caspase activity	100	–
CC(Cc1cccc2ccccc12)NCC(O)c1cccc(O)c1 (stereo not shown) [NT022, 3-(1-hydroxy-2-((1-(naphthalen-1-yl)propan-2-yl)amino)ethyl)phenol]	100	–	100	100	–	100	100	increase in caspase activity	100	–
CC(Cc1ccc2ccccc2c1)NCC(O)c1ccc(O)cc1 (stereo not shown) [NT026, 4-(1-hydroxy-2-((1-(naphthalen-2-yl)propan-2-yl)amino)ethyl)phenol]	100	–	100	100	efficacy of reducing the area of xenograft significantly	100	100	–	100	–
C[C@H](CCC(=O)O)C[C@H](C)C[C@H](C)C(=O)/C=C(\O)[C@H](C)C[C@H](C)C/C=C/[C@@H](C)[C@@H](O)[C@@H](C)[C@@H](O)C[C@@H]1CC[C@@](C)([C@H]2CC[C@@](C)([C@@H](C)O)O2)O1 [ionomycin, reference compound]	–	–	–	–	–	–	–	–	–	did not show an increase in caspase activation

From patent publication US20190337889A1, “COMPOSITIONS AND METHODS OF REGULATING CANCER RELATED DISORDERS AND DISEASES” (ONCO THERAPIES LLC, priority 2016, published 2019)
